Type in all cases: functional, organism-based
For assay [1], the system named is Influenza A virus. The experiment in a line: Antiviral activity against Influenza A virus (A2/Asian/J305) infected in Swiss albino mouse assessed as increase in host survival at 100 mg/kg, ip administered 4 hrs before infection, 1 hr after infection followed by twice daily for next 6 days for total of 14 treatments measured on 21st day post-infection. Set-up: dose 100 mg/kg.

For assay [2], the system named is Influenza A virus. As to the kind of experiment: Antiviral activity against Influenza A virus (A2/Asian/J305) infected in Swiss albino mouse assessed as increase in host survival at 25 mg/kg, ip administered 4 hrs before infection, 1 hr after infection followed by twice daily for next 6 days for total of 14 treatments measured on 21st day post-infection. Set-up: dose 25 mg/kg.

The test system of assay [3] is Influenza A virus. The experiment in a line: Antiviral activity against Influenza A virus (A2/Asian/J305) infected in Swiss albino mouse assessed as increase in host survival at 20 mg/kg, ip administered 4 hrs before infection, 1 hr after infection followed by twice daily for next 6 days for total of 14 treatments measured on 21st day post-infection. Also noted: dose 20 mg/kg.

Four molecules from ChEMBL document CHEMBL3272201, “Synthesis of tetrazole ribonucleosides and their evaluation as antiviral agents” (J Med Chem, 1976) can be followed below.

Active and inactive are the calls of the source. No cut-off for these calls is given here.

In the case of `OC[C@H]1O[C@@H](n2cnnn2)[C@H](O)[C@@H]1O`, the result in assay [1] was inactive.

As for `NC(=O)Cc1nnnn1[C@@H]1O[C@H](CO)[C@@H](O)[C@H]1O`, in assay [2], the result was inactive.

For `NC(=O)c1nnnn1[C@@H]1O[C@H](CO)[C@@H](O)[C@H]1O`, the outcome in assay [1] was inactive.

As to `NC(=O)c1ncn([C@@H]2O[C@H](CO)[C@@H](O)[C@H]2O)n1`, the result in assay [3] was Active.
